{"source": "patent US20230142844A1", "about": "“USE OF 1,9-DECANEDIOL IN RETARDING UREA HYDROLYSIS” (INSTITUTION OF SOIL SCIENCE, CHINESE ACADEMY OF SCIENCES, priority 2021, published 2023)", "test_system": "urea hydrolysis in soil", "assay": "Soil culture test: effect of inhibitors applied with urea on urea hydrolysis (urea nitrogen and ammonia nitrogen contents in soil)", "conditions": "for contents of ammonia nitrogen in soil (NH4^+-N) / contents of urea nitrogen in soil (Urea-N): flooded paddy soil, 25° C.; for inhibition of urea hydrolysis during the culture period / effect on retarding the hydrolysis efficiency of urea: result in words; for effect on retarding the hydrolysis efficiency of urea: applied with urea to flooded paddy soil", "method": "1.1 experimental soil: the type of experimental soil is paddy soil, and the texture is sandy loam soil. It is collected from 0-20 cm topsoil of experimental field in Yingtan City, Jiangxi Province (28° 15′N, 116° 55′E). It is sieved by 2 millimeters (mm), mixed, and reserved.\n1.2 test reagent: 1,9-decanediol is customized in market, and a structural formula thereof is C10H22O2. Nitrification inhibitor is dicyandiamide (DCD, a structural formula thereof is C2H4N4) is purchased from Sigma.\n1.3 experimental treatment: experimental setting as follows: urea treatment (U); nitrification inhibitor DCD +urea treatment including: DCD-20 mg/kg soil; 1,9-decanediol+urea treatment in the soil including: 1,9-D-100 mg/kg, 1,9-D-200 mg/kg, 1,9-D-500 mg/kg, and 1,9-D-1000 mg/kg. Each treatment is repeated three times. The amount of nitrogen applied is […] nitrogen per kilogram soil.\nAfter the experimental soil is weighed into 100 milliliters (mL) plastic pipe, distilled water is evenly added, and the soil water content is adjusted to 60% of the maximum field water capacity. Then the plastic pipe is sealed with sealing film and uniform holes are pricked to keep air flowing, and pre-cultured in a 25° C. incubator for three days.\nAfter the pre-culture, according to the different experimental treatments, the corresponding urea and inhibitors (1,9-decanediol and DCD) are weighed to form a mixed solution, the mixed solution is evenly applied to soil, then distilled water is added to maintain a flooded state, and cultured at 25° C. […]. The contents of urea nitrogen and ammonia nitrogen in soil are measured on the 1st, 2nd, 3rd, 5th, and 7th days of culture to evaluate the effects of different inhibitors on nitrogen transformation.", "key": {"[1]": {"conditions": "1,9-decanediol 100 mg/kg in soil + urea, 1 d of culture"}, "[2]": {"conditions": "1,9-decanediol 100 mg/kg in soil + urea, 2 d of culture"}, "[3]": {"conditions": "1,9-decanediol 100 mg/kg in soil + urea, 3 d of culture"}, "[4]": {"conditions": "1,9-decanediol 100 mg/kg in soil + urea, 5 d of culture"}, "[5]": {"conditions": "1,9-decanediol 100 mg/kg in soil + urea, 7 d of culture"}, "[6]": {"conditions": "1,9-decanediol 200 mg/kg in soil + urea, 1 d of culture"}, "[7]": {"conditions": "1,9-decanediol 200 mg/kg in soil + urea, 2 d of culture"}, "[8]": {"conditions": "1,9-decanediol 200 mg/kg in soil + urea, 5 d of culture"}, "[9]": {"conditions": "1,9-decanediol 200 mg/kg in soil + urea, 7 d of culture"}, "[10]": {"conditions": "1,9-decanediol 500 mg/kg in soil + urea, 1 d of culture"}, "[11]": {"conditions": "1,9-decanediol 500 mg/kg in soil + urea, 2 d of culture"}, "[12]": {"conditions": "1,9-decanediol 500 mg/kg in soil + urea, 3 d of culture"}, "[13]": {"conditions": "1,9-decanediol 500 mg/kg in soil + urea, 5 d of culture"}, "[14]": {"conditions": "1,9-decanediol 500 mg/kg in soil + urea, 7 d of culture"}, "[15]": {"conditions": "1,9-decanediol 1000 mg/kg in soil + urea, 1 d of culture"}, "[16]": {"conditions": "1,9-decanediol 1000 mg/kg in soil + urea, 2 d of culture"}, "[17]": {"conditions": "1,9-decanediol 1000 mg/kg in soil + urea, 3 d of culture"}, "[18]": {"conditions": "1,9-decanediol 1000 mg/kg in soil + urea, 5 d of culture"}, "[19]": {"conditions": "1,9-decanediol 1000 mg/kg in soil + urea, 7 d of culture"}, "[20]": {"conditions": "DCD 20 mg/kg soil + urea, 1 d of culture"}, "[21]": {"conditions": "DCD 20 mg/kg soil + urea, 2 d of culture"}, "[22]": {"conditions": "DCD 20 mg/kg soil + urea, 3 d of culture"}, "[23]": {"conditions": "DCD 20 mg/kg soil + urea, 5 d of culture"}, "[24]": {"conditions": "DCD 20 mg/kg soil + urea, 7 d of culture"}}, "data": [{"compound": "CC(O)CCCCCCCCO", "note": "(stereo not drawn) [1,9-D, 1,9-decanediol]", "values": [{"measurement": "contents of ammonia nitrogen in soil (NH4^+-N)", "setting": "[1]", "value": "171.9 ± 8.1", "unit": "a"}, {"measurement": "contents of urea nitrogen in soil (Urea-N)", "setting": "[1]", "value": "10.1 ± 0.7", "unit": "c"}, {"measurement": "contents of ammonia nitrogen in soil (NH4^+-N)", "setting": "[2]", "value": "176.8 ± 1.2", "unit": "c"}, {"measurement": "contents of urea nitrogen in soil (Urea-N)", "setting": "[2]", "value": "3.7 ± 1.2", "unit": "cd"}, {"measurement": "contents of ammonia nitrogen in soil (NH4^+-N)", "setting": "[3]", "value": "197.7 ± 7.3", "unit": "ab"}, {"measurement": "contents of urea nitrogen in soil (Urea-N)", "setting": "[3]", "value": "3.4 ± 0.5", "unit": "days"}, {"measurement": "contents of ammonia nitrogen in soil (NH4^+-N)", "setting": "[4]", "value": "187 ± 8.5", "unit": "mg/kg"}, {"measurement": "contents of urea nitrogen in soil (Urea-N)", "setting": "[4]", "value": "3.3 ± 0.2", "unit": "c"}, {"measurement": "contents of ammonia nitrogen in soil (NH4^+-N)", "setting": "[5]", "value": "221.7 ± 2.4", "unit": "ab"}, {"measurement": "contents of urea nitrogen in soil (Urea-N)", "setting": "[5]", "value": "2.9 ± 0.5", "unit": "bc"}, {"measurement": "contents of ammonia nitrogen in soil (NH4^+-N)", "setting": "[6]", "value": "150.8 ± 2.8", "unit": "b"}, {"measurement": "contents of urea nitrogen in soil (Urea-N)", "setting": "[6]", "value": "15.2 ± 0.1", "unit": "c"}, {"measurement": "contents of ammonia nitrogen in soil (NH4^+-N)", "setting": "[7]", "value": "173.7 ± 1.9", "unit": "c"}, {"measurement": "contents of urea nitrogen in soil (Urea-N)", "setting": "[7]", "value": "9.1 ± 0.51", "unit": "b"}, {"measurement": "contents of ammonia nitrogen in soil (NH4^+-N)", "setting": "1,9-decanediol 200 mg/kg in soil + urea, 3 d of culture", "value": "195 ± 9", "unit": "b"}, {"measurement": "contents of ammonia nitrogen in soil (NH4^+-N)", "setting": "[8]", "value": "213.9 ± 3.3", "unit": "ab"}, {"measurement": "contents of urea nitrogen in soil (Urea-N)", "setting": "[8]", "value": "2.8 ± 0.5", "unit": "c"}, {"measurement": "contents of ammonia nitrogen in soil (NH4^+-N)", "setting": "[9]", "value": "221.4 ± 4.4", "unit": "ab"}, {"measurement": "contents of urea nitrogen in soil (Urea-N)", "setting": "[9]", "value": "4.2 ± 1.4", "unit": "ab"}, {"measurement": "contents of ammonia nitrogen in soil (NH4^+-N)", "setting": "[10]", "value": "51 ± 1.1", "unit": "c"}, {"measurement": "contents of urea nitrogen in soil (Urea-N)", "setting": "[10]", "value": "115.6 ± 13", "unit": "b"}, {"measurement": "contents of ammonia nitrogen in soil (NH4^+-N)", "setting": "[11]", "value": "160 ± 6.2", "unit": "mg/kg"}, {"measurement": "contents of urea nitrogen in soil (Urea-N)", "setting": "[11]", "value": "11.7 ± 0.4", "unit": "b"}, {"measurement": "contents of ammonia nitrogen in soil (NH4^+-N)", "setting": "[12]", "value": "180.8 ± 6.3", "unit": "c"}, {"measurement": "contents of urea nitrogen in soil (Urea-N)", "setting": "[12]", "value": "10.5 ± 0.7", "unit": "b"}, {"measurement": "contents of ammonia nitrogen in soil (NH4^+-N)", "setting": "[13]", "value": "207.3 ± 2.1", "unit": "b"}, {"measurement": "contents of urea nitrogen in soil (Urea-N)", "setting": "[13]", "value": "6.1 ± 0.6", "unit": "a"}, {"measurement": "contents of ammonia nitrogen in soil (NH4^+-N)", "setting": "[14]", "value": "217.3 ± 3.3", "unit": "b"}, {"measurement": "contents of urea nitrogen in soil (Urea-N)", "setting": "[14]", "value": "3.4 ± 0.7", "unit": "bc"}, {"measurement": "contents of ammonia nitrogen in soil (NH4^+-N)", "setting": "[15]", "value": "46.3 ± 2.1", "unit": "c"}, {"measurement": "contents of urea nitrogen in soil (Urea-N)", "setting": "[15]", "value": "139 ± 7.2", "unit": "a"}, {"measurement": "contents of ammonia nitrogen in soil (NH4^+-N)", "setting": "[16]", "value": "92.9 ± 0.4", "unit": "e"}, {"measurement": "contents of urea nitrogen in soil (Urea-N)", "setting": "[16]", "value": "73.4 ± 3.8", "unit": "a"}, {"measurement": "contents of ammonia nitrogen in soil (NH4^+-N)", "setting": "[17]", "value": "152 ± 1.4", "unit": "mg/kg"}, {"measurement": "contents of urea nitrogen in soil (Urea-N)", "setting": "[17]", "value": "14.8 ± 1.7", "unit": "a"}, {"measurement": "contents of ammonia nitrogen in soil (NH4^+-N)", "setting": "[18]", "value": "196.7 ± 2", "unit": "c"}, {"measurement": "contents of urea nitrogen in soil (Urea-N)", "setting": "[18]", "value": "5 ± 0.5", "unit": "b"}, {"measurement": "contents of ammonia nitrogen in soil (NH4^+-N)", "setting": "[19]", "value": "203.2 ± 7", "unit": "c"}, {"measurement": "contents of urea nitrogen in soil (Urea-N)", "setting": "[19]", "value": "5.4 ± 0.5", "unit": "a"}, {"measurement": "inhibition of urea hydrolysis during the culture period", "setting": "addition of 500 mg/kg", "value": "can significantly inhibit the urea hydrolysis"}, {"measurement": "inhibition of urea hydrolysis during the culture period", "setting": "addition of 1000 mg/kg", "value": "can significantly inhibit the urea hydrolysis"}, {"measurement": "effect on retarding the hydrolysis efficiency of urea", "value": "can retard the hydrolysis efficiency of urea"}, {"measurement": "efficiencies of retarding urea hydrolysis from large to small", "setting": "ranking of treatments (1,9-D 100-1000 mg/kg, DCD 20 mg/kg soil)", "value": "1, 9-D-1000>1, 9-D-500>1, 9-D-200>1, 9-D-100>DCD"}]}, {"compound": "N#CN=C(N)N", "note": "[DCD, dicyandiamide, reference compound]", "values": [{"measurement": "contents of ammonia nitrogen in soil (NH4^+-N)", "setting": "[20]", "value": "176.9 ± 5.5", "unit": "a"}, {"measurement": "contents of urea nitrogen in soil (Urea-N)", "setting": "[20]", "value": "4.5 ± 0.4", "unit": "c"}, {"measurement": "contents of ammonia nitrogen in soil (NH4^+-N)", "setting": "[21]", "value": "183.6 ± 4", "unit": "b"}, {"measurement": "contents of urea nitrogen in soil (Urea-N)", "setting": "[21]", "value": "1.6 ± 0.3", "unit": "days"}, {"measurement": "contents of ammonia nitrogen in soil (NH4^+-N)", "setting": "[22]", "value": "203.1 ± 1.6", "unit": "ab"}, {"measurement": "contents of urea nitrogen in soil (Urea-N)", "setting": "[22]", "value": "1.4 ± 0.2", "unit": "e"}, {"measurement": "contents of ammonia nitrogen in soil (NH4^+-N)", "setting": "[23]", "value": "208.4 ± 1.6", "unit": "b"}, {"measurement": "contents of urea nitrogen in soil (Urea-N)", "setting": "[23]", "value": "1.2 ± 0.1", "unit": "days"}, {"measurement": "contents of ammonia nitrogen in soil (NH4^+-N)", "setting": "[24]", "value": "217.9 ± 4.3", "unit": "b"}, {"measurement": "contents of urea nitrogen in soil (Urea-N)", "setting": "[24]", "value": "2.9 ± 0.4", "unit": "bc"}, {"measurement": "effect on retarding the hydrolysis efficiency of urea", "value": "no effect"}]}]}
